From ChEMBL document CHEMBL5223127, “Fragment-based discovery of novel phenyltriazolyl derivatives as allosteric type-I1/2 ALK inhibitors with promising antitumor effects” (Bioorg Med Chem Lett, 2022)

Tested on: KARPAS-299
Assay: Antiproliferative activity against human KARPAS-299 cells by MTT assay
Details: not given

SMILES	IC50 [nM]
CN(C)c1ccc(NCc2cn(-c3cccc(NC(=O)c4cc(F)cc(F)c4)c3)nn2)cc1C(=O)N1CCOCC1	1760
CN(C)c1ccc(NCc2cn(-c3cccc(NC(=O)c4cc(F)cc(F)c4)c3)nn2)cc1C(=O)N1CCCCC1	589
CN1CCN(c2ccc(NCc3cn(-c4cccc(NC(=O)c5cc(F)cc(F)c5)c4)nn3)cc2C(=O)N2CCCC2)CC1	79
O=C(Nc1cccc(-n2cc(CNc3ccc(N4CC(O)C4)c(C(=O)N4CCOCC4)c3)nn2)c1)c1cc(F)cc(F)c1	594
O=C(Nc1cccc(-n2cc(CNc3ccc(NCCO)c(C(=O)N4CCCCC4)c3)nn2)c1)c1cc(F)cc(F)c1	602

Results, then the molecule that gave them:

IC50 [nM]	SMILES
191	CC1CCN(c2ccc(NCc3cn(-c4cccc(NC(=O)c5cc(F)cc(F)c5)c4)nn3)cc2C(=O)N(C)C)CC1
492	CN(C)C(=O)c1cc(NCc2cn(-c3cccc(NC(=O)c4cc(F)cc(F)c4)c3)nn2)ccc1NCCO
57	O=C(Nc1cccc(-n2cc(CNc3ccc(N4CCC(O)CC4)c(C(=O)N4CCCCC4)c3)nn2)c1)c1cc(F)cc(F)c1
425	O=C(Nc1cccc(-n2cc(CNc3ccc(N4CCC(O)CC4)c(C(=O)N4CCOCC4)c3)nn2)c1)c1cc(F)cc(F)c1
249	CC1CCN(c2ccc(NCc3cn(-c4cccc(NC(=O)c5cc(F)cc(F)c5)c4)nn3)cc2C(=O)N2CCCC2)CC1
2310	CC1CCN(c2ccc(NCc3cn(-c4cccc(NC(=O)c5cc(F)cc(F)c5)c4)nn3)cc2C(=O)N2CCOCC2)CC1
55	CN1CCN(c2ccc(NCc3cn(-c4cccc(NC(=O)c5cc(F)cc(F)c5)c4)nn3)cc2C(=O)N(C)C)CC1

Tested on: NCI-H2228
Assay: Antiproliferative activity against human NCI-H2228 cells by MTT assay
Details: not given

SMILES	IC50 [nM]
CN(C)c1ccc(NCc2cn(-c3cccc(NC(=O)c4cc(F)cc(F)c4)c3)nn2)cc1C(=O)N1CCOCC1	7890
CN(C)c1ccc(NCc2cn(-c3cccc(NC(=O)c4cc(F)cc(F)c4)c3)nn2)cc1C(=O)N1CCCCC1	2800
CN1CCN(c2ccc(NCc3cn(-c4cccc(NC(=O)c5cc(F)cc(F)c5)c4)nn3)cc2C(=O)N2CCCC2)CC1	362
O=C(Nc1cccc(-n2cc(CNc3ccc(N4CC(O)C4)c(C(=O)N4CCOCC4)c3)nn2)c1)c1cc(F)cc(F)c1	1610
O=C(Nc1cccc(-n2cc(CNc3ccc(NCCO)c(C(=O)N4CCCCC4)c3)nn2)c1)c1cc(F)cc(F)c1	2520

Now from value to molecule:

IC50 [nM]	SMILES
881	CC1CCN(c2ccc(NCc3cn(-c4cccc(NC(=O)c5cc(F)cc(F)c5)c4)nn3)cc2C(=O)N(C)C)CC1
1790	CN(C)C(=O)c1cc(NCc2cn(-c3cccc(NC(=O)c4cc(F)cc(F)c4)c3)nn2)ccc1NCCO
192	O=C(Nc1cccc(-n2cc(CNc3ccc(N4CCC(O)CC4)c(C(=O)N4CCCCC4)c3)nn2)c1)c1cc(F)cc(F)c1
1860	O=C(Nc1cccc(-n2cc(CNc3ccc(N4CCC(O)CC4)c(C(=O)N4CCOCC4)c3)nn2)c1)c1cc(F)cc(F)c1
995	CC1CCN(c2ccc(NCc3cn(-c4cccc(NC(=O)c5cc(F)cc(F)c5)c4)nn3)cc2C(=O)N2CCCC2)CC1
> 10000	CC1CCN(c2ccc(NCc3cn(-c4cccc(NC(=O)c5cc(F)cc(F)c5)c4)nn3)cc2C(=O)N2CCOCC2)CC1
169	CN1CCN(c2ccc(NCc3cn(-c4cccc(NC(=O)c5cc(F)cc(F)c5)c4)nn3)cc2C(=O)N(C)C)CC1

Biological target: ALK tyrosine kinase receptor (Homo sapiens, UniProt Q9UM73)
Sequence (Q9UM73 whole entry): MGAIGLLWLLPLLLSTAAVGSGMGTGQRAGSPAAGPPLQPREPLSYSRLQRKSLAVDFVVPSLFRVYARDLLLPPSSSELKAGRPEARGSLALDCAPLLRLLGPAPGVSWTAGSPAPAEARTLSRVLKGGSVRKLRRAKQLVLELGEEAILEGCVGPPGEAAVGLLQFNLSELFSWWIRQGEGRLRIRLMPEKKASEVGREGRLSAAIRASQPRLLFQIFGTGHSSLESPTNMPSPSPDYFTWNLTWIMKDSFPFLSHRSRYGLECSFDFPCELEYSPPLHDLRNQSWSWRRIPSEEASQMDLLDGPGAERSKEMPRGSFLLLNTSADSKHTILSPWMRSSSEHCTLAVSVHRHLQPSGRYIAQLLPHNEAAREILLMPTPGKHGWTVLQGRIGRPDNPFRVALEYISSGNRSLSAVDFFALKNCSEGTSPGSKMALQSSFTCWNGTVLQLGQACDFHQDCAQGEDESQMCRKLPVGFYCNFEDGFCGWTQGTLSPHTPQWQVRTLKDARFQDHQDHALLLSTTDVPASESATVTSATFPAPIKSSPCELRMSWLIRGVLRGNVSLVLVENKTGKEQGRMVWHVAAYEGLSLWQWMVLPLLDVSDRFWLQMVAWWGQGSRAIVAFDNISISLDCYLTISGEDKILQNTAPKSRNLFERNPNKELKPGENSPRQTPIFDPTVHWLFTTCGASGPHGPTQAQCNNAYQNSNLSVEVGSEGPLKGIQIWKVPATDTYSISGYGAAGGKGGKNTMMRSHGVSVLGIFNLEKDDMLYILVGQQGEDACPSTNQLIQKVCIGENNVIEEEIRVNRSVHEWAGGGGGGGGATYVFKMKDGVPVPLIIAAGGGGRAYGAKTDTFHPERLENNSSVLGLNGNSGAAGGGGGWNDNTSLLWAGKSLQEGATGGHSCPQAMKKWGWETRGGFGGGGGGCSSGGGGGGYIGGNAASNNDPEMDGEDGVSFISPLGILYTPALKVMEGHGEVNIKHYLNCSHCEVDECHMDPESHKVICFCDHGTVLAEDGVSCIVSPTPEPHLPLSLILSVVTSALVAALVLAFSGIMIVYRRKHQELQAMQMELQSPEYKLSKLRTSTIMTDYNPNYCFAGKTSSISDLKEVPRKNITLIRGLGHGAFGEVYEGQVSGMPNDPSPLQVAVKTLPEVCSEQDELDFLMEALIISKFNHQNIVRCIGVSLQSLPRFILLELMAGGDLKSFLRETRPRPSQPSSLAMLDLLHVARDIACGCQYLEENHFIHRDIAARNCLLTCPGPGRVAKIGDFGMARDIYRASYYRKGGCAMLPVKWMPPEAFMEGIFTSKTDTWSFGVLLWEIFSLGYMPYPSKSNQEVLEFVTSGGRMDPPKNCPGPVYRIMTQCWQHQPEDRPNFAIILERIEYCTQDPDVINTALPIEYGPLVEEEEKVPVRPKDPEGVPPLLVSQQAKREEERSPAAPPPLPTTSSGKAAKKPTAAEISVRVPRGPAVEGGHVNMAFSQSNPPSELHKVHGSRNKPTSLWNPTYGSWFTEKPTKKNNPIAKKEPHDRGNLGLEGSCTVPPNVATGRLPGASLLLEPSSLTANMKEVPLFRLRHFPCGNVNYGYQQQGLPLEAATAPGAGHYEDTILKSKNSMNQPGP
Assay: Inhibition of wild type ALK (unknown origin)
Details: not given

IC50 [nM]	SMILES
270	CNCc1cn(-c2cccc(NC(=O)c3cc(F)cc(F)c3)c2)nn1
55	CN1CCN(c2ccc(NCc3cn(-c4cccc(NC(=O)c5cc(F)cc(F)c5)c4)nn3)cc2)CC1
8.6	O=C(Nc1cccc(-n2cc(CNc3ccc(N4CCC(O)CC4)c(C(=O)N4CCCCC4)c3)nn2)c1)c1cc(F)cc(F)c1

Biological target: ALK tyrosine kinase receptor (Homo sapiens, UniProt Q9UM73, L1196M)
Assay: Inhibition of ALK L1196M mutant (unknown origin)
Details: not given

IC50 [nM]	SMILES
17.6	O=C(Nc1cccc(-n2cc(CNc3ccc(N4CCC(O)CC4)c(C(=O)N4CCCCC4)c3)nn2)c1)c1cc(F)cc(F)c1

Biological target: Epidermal growth factor receptor (Homo sapiens, UniProt P00533)
Sequence (P00533 whole entry): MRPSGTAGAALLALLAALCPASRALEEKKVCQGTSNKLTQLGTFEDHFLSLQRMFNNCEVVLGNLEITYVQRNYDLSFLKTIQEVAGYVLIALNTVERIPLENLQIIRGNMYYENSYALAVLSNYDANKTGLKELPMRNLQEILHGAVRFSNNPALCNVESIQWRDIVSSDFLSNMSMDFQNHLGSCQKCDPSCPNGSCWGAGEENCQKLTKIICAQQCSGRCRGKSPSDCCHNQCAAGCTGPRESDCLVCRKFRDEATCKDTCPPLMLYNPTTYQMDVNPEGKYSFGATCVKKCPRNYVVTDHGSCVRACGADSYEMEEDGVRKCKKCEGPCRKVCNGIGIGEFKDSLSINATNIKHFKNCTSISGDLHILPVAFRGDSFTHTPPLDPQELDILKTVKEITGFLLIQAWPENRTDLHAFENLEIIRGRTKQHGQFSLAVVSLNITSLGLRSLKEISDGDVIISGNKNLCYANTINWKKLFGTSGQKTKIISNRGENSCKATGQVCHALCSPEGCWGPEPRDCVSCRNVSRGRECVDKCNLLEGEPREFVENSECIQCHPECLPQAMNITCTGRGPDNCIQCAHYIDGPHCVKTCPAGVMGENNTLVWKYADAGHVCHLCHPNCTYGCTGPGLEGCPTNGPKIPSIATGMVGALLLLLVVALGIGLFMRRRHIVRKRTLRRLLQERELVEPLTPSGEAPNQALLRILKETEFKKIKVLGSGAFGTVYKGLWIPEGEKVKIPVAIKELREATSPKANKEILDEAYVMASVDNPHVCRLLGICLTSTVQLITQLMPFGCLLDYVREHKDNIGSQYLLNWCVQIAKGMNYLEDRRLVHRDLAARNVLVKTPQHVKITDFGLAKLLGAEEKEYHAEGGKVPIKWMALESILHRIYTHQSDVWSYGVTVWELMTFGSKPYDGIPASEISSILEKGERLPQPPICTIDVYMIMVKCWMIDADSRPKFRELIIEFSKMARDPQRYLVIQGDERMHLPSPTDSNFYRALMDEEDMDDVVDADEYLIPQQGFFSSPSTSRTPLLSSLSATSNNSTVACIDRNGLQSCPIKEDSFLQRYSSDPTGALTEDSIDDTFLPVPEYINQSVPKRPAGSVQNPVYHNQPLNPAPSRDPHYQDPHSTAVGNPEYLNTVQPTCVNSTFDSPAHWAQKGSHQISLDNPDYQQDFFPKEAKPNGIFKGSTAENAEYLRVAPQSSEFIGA
Assay: Inhibition of EGFR (unknown origin)
Details: not given

IC50 [nM]	SMILES
> 1000	O=C(Nc1cccc(-n2cc(CNc3ccc(N4CCC(O)CC4)c(C(=O)N4CCCCC4)c3)nn2)c1)c1cc(F)cc(F)c1

Biological target: Hepatocyte growth factor receptor (Homo sapiens, UniProt P08581)
Sequence (P08581 whole entry): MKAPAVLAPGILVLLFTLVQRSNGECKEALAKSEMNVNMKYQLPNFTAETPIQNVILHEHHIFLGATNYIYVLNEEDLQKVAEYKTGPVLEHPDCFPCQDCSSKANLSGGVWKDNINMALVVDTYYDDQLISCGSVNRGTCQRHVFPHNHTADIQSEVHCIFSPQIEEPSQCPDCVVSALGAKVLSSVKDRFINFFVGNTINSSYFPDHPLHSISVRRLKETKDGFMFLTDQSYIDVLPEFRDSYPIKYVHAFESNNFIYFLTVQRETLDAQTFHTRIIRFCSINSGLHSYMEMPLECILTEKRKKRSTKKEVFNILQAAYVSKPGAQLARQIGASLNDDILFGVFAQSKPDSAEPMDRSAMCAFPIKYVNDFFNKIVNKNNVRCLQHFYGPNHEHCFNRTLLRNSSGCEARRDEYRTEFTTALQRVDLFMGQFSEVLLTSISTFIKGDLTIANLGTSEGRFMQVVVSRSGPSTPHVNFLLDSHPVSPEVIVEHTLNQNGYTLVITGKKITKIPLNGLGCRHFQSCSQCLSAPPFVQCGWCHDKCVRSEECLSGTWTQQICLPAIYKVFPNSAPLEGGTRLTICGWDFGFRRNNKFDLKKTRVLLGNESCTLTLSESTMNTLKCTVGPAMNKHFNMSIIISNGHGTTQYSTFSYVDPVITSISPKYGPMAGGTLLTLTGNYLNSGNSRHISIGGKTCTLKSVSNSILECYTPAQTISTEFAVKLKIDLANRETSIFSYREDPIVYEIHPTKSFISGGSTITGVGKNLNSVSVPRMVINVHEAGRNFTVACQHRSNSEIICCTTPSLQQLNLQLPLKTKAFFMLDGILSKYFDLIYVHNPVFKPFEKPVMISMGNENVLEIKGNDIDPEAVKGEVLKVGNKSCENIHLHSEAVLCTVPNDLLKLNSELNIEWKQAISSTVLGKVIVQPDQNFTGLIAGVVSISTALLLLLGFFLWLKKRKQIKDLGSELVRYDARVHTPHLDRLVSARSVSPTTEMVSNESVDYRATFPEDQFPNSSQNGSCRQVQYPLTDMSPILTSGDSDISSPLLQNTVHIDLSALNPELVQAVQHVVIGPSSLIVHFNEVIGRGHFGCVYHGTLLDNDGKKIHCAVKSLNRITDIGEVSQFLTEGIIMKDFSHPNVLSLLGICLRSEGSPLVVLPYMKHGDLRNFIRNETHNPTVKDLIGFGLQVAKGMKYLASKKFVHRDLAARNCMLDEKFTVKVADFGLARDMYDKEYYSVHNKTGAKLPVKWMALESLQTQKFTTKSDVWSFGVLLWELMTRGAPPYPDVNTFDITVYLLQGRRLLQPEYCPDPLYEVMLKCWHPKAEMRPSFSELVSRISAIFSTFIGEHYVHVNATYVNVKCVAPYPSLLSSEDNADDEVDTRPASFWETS
Assay: Inhibition of c-MET (unknown origin)
Details: not given

IC50 [nM]	SMILES
> 1000	O=C(Nc1cccc(-n2cc(CNc3ccc(N4CCC(O)CC4)c(C(=O)N4CCCCC4)c3)nn2)c1)c1cc(F)cc(F)c1

Tested on: A549
Assay: cells
Details: Homo sapiens
Description: Antiproliferative activity against human A549 cells by MTT assay

SMILES	IC50 [µM]
CN(C)c1ccc(NCc2cn(-c3cccc(NC(=O)c4cc(F)cc(F)c4)c3)nn2)cc1C(=O)N1CCOCC1	> 10
CN(C)c1ccc(NCc2cn(-c3cccc(NC(=O)c4cc(F)cc(F)c4)c3)nn2)cc1C(=O)N1CCCCC1	> 10
CN1CCN(c2ccc(NCc3cn(-c4cccc(NC(=O)c5cc(F)cc(F)c5)c4)nn3)cc2C(=O)N2CCCC2)CC1	> 10
O=C(Nc1cccc(-n2cc(CNc3ccc(N4CC(O)C4)c(C(=O)N4CCOCC4)c3)nn2)c1)c1cc(F)cc(F)c1	> 10
O=C(Nc1cccc(-n2cc(CNc3ccc(NCCO)c(C(=O)N4CCCCC4)c3)nn2)c1)c1cc(F)cc(F)c1	> 10

Further lines, results first:

IC50 [µM]	SMILES
5.79	CC1CCN(c2ccc(NCc3cn(-c4cccc(NC(=O)c5cc(F)cc(F)c5)c4)nn3)cc2C(=O)N(C)C)CC1
7.99	CN(C)C(=O)c1cc(NCc2cn(-c3cccc(NC(=O)c4cc(F)cc(F)c4)c3)nn2)ccc1NCCO
> 10	O=C(Nc1cccc(-n2cc(CNc3ccc(N4CCC(O)CC4)c(C(=O)N4CCCCC4)c3)nn2)c1)c1cc(F)cc(F)c1
> 10	O=C(Nc1cccc(-n2cc(CNc3ccc(N4CCC(O)CC4)c(C(=O)N4CCOCC4)c3)nn2)c1)c1cc(F)cc(F)c1
> 10	CC1CCN(c2ccc(NCc3cn(-c4cccc(NC(=O)c5cc(F)cc(F)c5)c4)nn3)cc2C(=O)N2CCCC2)CC1
> 10	CC1CCN(c2ccc(NCc3cn(-c4cccc(NC(=O)c5cc(F)cc(F)c5)c4)nn3)cc2C(=O)N2CCOCC2)CC1
3.75	CN1CCN(c2ccc(NCc3cn(-c4cccc(NC(=O)c5cc(F)cc(F)c5)c4)nn3)cc2C(=O)N(C)C)CC1
